# Values of other authors, collected in paper PMC9587990, “Molecular basis for isoform-selective inhibition of presenilin-1 by MRK-560” (Nature Communications, 2022).
# System: PS1-complex over PS2
# Conditions: cited from earlier work
compound,measurement,value
C[C@H](c1ccc(F)cc1CCCC(=O)O)N(c1cc(F)ccc1F)S(=O)(=O)c1ccc(Cl)cc1 [BMS299897],reported isoform selectivity,PS1 selectivity
O=C1NCCCCC1N(Cc1ccc(Br)cc1)S(=O)(=O)c1ccc(Cl)cc1 (centres unmarked) [ELN318463],reported isoform selectivity,PS1 selectivity
